# Measurements as given in article PMC9655968, “Synthesis of Novel Bromophenol with Diaryl Methanes—Determination of Their Inhibition Effects on Carbonic Anhydrase and Acetylcholinesterase” (Molecules, 2022).
# Tests used:
# Format in all cases: biochemical
# hCA II = hCA II (Homo sapiens, UniProt P00918); assay: biochemical; conditions: for IC50: esterase method; for Ki: from Lineweaver-Burk graphs, mean ± SD
# Protocol: (§1) […] Both hCA isoforms were purified by using the Sepharose-4B-L-Tyrosine-sulfanilamide affinity technique. Then, the purity of these CA isoenzymes was defined via the SDS-PAGE purity technique.
# (§2) In order to investigate the in vitro inhibitory mechanisms of bromophenols (13–21), kinetic studies were performed at different concentrations of bromophenols and various substrates.
# hCA I = hCA I (Homo sapiens, UniProt P00915); assay: biochemical; conditions: for IC50: esterase method; for Ki: from Lineweaver-Burk graphs, mean ± SD
# hCA I, sequence (P00915 whole entry): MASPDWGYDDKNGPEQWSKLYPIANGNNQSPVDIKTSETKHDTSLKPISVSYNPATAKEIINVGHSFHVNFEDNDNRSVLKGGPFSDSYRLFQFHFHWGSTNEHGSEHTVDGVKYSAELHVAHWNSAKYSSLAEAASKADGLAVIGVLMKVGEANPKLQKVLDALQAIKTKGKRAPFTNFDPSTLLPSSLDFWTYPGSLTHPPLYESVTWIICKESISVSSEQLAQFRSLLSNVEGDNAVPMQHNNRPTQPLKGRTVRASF
# Protocol: as §1, §2
# AChE = AChE (Electrophorus electricus, UniProt O42275); assay: AChE inhibition, Ellman's method at 412 nm, acetylthiocholine iodide substrate; conditions: for IC50: Ellman's method; for Ki: from Lineweaver-Burk graphs, mean ± SD
# AChE, sequence (O42275 24-633): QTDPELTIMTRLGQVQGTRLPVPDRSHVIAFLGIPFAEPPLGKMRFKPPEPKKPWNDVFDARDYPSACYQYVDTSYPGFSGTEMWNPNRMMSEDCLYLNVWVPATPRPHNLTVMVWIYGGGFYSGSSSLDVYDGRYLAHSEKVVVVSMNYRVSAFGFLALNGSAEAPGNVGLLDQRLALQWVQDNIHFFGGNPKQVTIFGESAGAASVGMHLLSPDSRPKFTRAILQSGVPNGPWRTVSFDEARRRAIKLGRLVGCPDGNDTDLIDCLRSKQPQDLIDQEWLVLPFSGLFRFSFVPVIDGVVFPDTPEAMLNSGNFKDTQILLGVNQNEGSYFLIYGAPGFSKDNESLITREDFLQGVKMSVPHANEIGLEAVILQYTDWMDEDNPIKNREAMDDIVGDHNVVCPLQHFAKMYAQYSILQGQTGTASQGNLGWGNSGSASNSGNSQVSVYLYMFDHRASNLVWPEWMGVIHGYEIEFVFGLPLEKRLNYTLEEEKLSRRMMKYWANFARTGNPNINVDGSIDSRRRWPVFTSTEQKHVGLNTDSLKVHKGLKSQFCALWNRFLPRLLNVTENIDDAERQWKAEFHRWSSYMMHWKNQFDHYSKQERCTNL
# Protocol: Acetylthiocholine iodide (AChI) was used as substrate, according to a prior study. […]
# as §2
# [1] = 19 and 21 compared (hydroxyl instead of methyl)
Molecule,IC50 (hCA II),Ki (hCA II),IC50 (hCA I),Ki (hCA I),IC50 (AChE),Ki (AChE),"fold greater effect on inhibition, hCA I (hCA I; 14 (methyl) compared with 16 (methoxy))","fold difference in the inhibition value, hCA I (hCA I; compounds 14 and 19 compared)","fold decrease in the Ki value, hCA I (hCA I; 15 compared with 16 (bromo group at 4th position))","fold increase in the inhibition value, hCA II (hCA II; [1])","fold increase in the inhibition value, AChE (AChE; [1])"
"COc1cc(Br)c(Cc2ccc(OC)c(OC)c2OC)cc1OC [Compound 17, 1-(2-bromo-4,5dimethoxybenzyl)-2,3,4-trimethoxybenzene]",0.0231 µM,0.0103 ± 0.00188 µM,0.0277 µM,0.0188 ± 0.00497 µM,–,–,–,–,–,–,–
"COc1ccc(OC)c(Cc2cc(OC)c(OC)cc2Br)c1 [Compound 16, 1-Bromo-2-(2,5-dimethoxybenzyl)-4,5-dimethoxybenzene]",0.0158 µM,0.00777 ± 0.00057 µM,0.021 µM,0.0128 ± 0.00052 µM,–,–,–,–,–,–,–
"Oc1cc(Br)c(Cc2cc(O)c(Br)cc2O)cc1O [Compound 20, 4-Bromo-5-(4-bromo-2,5-dihydroxybenzyl)benzene-1,2-diol]",0.0141 µM,0.00621 ± 0.00101 µM,0.0193 µM,0.0134 ± 0.00229 µM,–,–,–,–,–,–,–
"4-Bromo-5-(2-bromo-4-hydroxybenzyl)benzene-1,2-diol [Compound 19]",–,–,–,–,0.0204 µM,0.0174 ± 0.00315 µM,–,–,–,–,–
"1-Bromo-4,5-dimethoxy-2-(5-methoxy-2-methylbenzyl)benzene [Compound 14]",0.0147 µM,0.00428 ± 0.00086 µM,0.0198 µM,0.00253 ± 0.00025 µM,0.0119 µM,0.0116 ± 0.00275 µM,5.06 fold,8.04 fold,–,–,–
"Oc1ccc(Cc2cc(O)c(O)cc2Br)c(Br)c1 [Compound 18, 4-Bromo-5-(2-bromo-4-hydroxybenzyl)benzene-1,2-diol]",0.0114 µM,0.00915 ± 0.00136 µM,0.0154 µM,0.0125 ± 0.00066 µM,–,–,–,–,–,–,–
"COc1cc(Cc2cc(OC)c(OC)cc2Br)c(OC)cc1Br [Compound 15, 1-Bromo-2-(4-bromo-2,5-dimethoxybenzyl)-4,5-dimethoxybenzene]",0.0151 µM,0.00262 ± 0.00013 µM,0.0204 µM,0.00935 ± 0.00188 µM,–,–,–,–,1.37 fold,–,–
"COc1ccc(Cc2cc(OC)c(OC)cc2Br)c(Br)c1 [Compound 13, 1-Bromo-2-(2-bromo-4-methoxybenzyl)-4,5-dimethoxybenzene]",0.021 µM,0.00163 ± 0.00011 µM,0.0385 µM,0.0257 ± 0.00458 µM,–,–,–,–,–,–,–
"Oc1ccc(O)c(Cc2cc(O)c(O)cc2Br)c1 [Compound 21, 4-Bromo-5-(2,5-dihydroxybenzyl)benzene-1,2-diol]",0.00745 µM,0.00497 ± 0.00059 µM,0.0124 µM,0.011 ± 0.00383 µM,–,–,–,–,–,3.03 fold,2.67 fold
